Measured values as given in US20170275287A1, “NOVEL N2, N4, N7, 6-TETRASUBSTITUTED PTERIDINE-2,4,7-TRIAMINE AND 2, 4, 6, 7-TETRASUBSTITUTED PTERIDINE COMPOUNDS AND METHODS OF SYNTHESIS AND USE THEREOF” (Janus Biotherapeutics, Inc., priority 2014, published 2017).
Read-outs that look alike come from different tables or passages of the source.

Key:
[1] = Pharmacokinetic study in rats, IV and PO, whole blood (Charles River); type: in vivo, Sprague-Dawley rats
Experimental: A pharmacokinetic study was performed by Charles River Wilmington Mass., in rats and the doses where 2 mg/kg IV and 10 mg/kg PO and whole blood levels were measured for 72 h. The calculated pharmacokinetic parameters for 24 h are given below in Table 8.
Six (6) male Sprague-Dawley rats were selected from the Testing Facility's rodent colony. The animals were enrolled in the study based on acceptable health as determined by a Testing Facility veterinarian and based on patency of femoral and jugular vein catheters. Fasting was performed for at least 16 hours prior to dosing. Food was also withheld until after the 4 hour time point collection. The animals were placed into 2 groups of 3 animals per group. Each animal in Group 1 received prepared JB6121 by intravenous dose administration at a target dose level of 2 mg/kg and at a dose volume of 1 mL/kg. Immediately following intravenous dosing, the inter-dwelling catheter was flushed with 0.5 mL of saline. Each animal in Group 2 received prepared JB6121 by oral gavage dose administration at a target dose level of 10 mg/kg and at a dose volume of 10 mL/kg.
Whole blood samples (0.300 mL; K2EDTA anticoagulant) were collected from each animal through a jugular vein catheter. Whole blood samples were collected from all animals at 30 minutes and at 1, 2, 4, 6, 12, 24, 48, and 72 hours after dose administration.
Whole blood samples were transferred to the Charle River Bioanalytical Sciences Laboratory, Wilmington Mass., for analysis. Pharmacokinetic parameters were estimated using Watson pharmacokinetic software (Version No. 7.2) using a non-compartmental approach consistent with the IV or PO route of administration.

[2] = molecular target: T1, TLR9 (Rattus norvegicus, UniProt Q6Y1S0); assay: PK/PD study: serum cytokines after ODN CpG 1668 challenge; type: in vivo, Sprague-Dawley rats
T1 construct: endogenous in cells; host or cells: live Sprague-Dawley rats
T1 sequence (Q6Y1S0 24-1032): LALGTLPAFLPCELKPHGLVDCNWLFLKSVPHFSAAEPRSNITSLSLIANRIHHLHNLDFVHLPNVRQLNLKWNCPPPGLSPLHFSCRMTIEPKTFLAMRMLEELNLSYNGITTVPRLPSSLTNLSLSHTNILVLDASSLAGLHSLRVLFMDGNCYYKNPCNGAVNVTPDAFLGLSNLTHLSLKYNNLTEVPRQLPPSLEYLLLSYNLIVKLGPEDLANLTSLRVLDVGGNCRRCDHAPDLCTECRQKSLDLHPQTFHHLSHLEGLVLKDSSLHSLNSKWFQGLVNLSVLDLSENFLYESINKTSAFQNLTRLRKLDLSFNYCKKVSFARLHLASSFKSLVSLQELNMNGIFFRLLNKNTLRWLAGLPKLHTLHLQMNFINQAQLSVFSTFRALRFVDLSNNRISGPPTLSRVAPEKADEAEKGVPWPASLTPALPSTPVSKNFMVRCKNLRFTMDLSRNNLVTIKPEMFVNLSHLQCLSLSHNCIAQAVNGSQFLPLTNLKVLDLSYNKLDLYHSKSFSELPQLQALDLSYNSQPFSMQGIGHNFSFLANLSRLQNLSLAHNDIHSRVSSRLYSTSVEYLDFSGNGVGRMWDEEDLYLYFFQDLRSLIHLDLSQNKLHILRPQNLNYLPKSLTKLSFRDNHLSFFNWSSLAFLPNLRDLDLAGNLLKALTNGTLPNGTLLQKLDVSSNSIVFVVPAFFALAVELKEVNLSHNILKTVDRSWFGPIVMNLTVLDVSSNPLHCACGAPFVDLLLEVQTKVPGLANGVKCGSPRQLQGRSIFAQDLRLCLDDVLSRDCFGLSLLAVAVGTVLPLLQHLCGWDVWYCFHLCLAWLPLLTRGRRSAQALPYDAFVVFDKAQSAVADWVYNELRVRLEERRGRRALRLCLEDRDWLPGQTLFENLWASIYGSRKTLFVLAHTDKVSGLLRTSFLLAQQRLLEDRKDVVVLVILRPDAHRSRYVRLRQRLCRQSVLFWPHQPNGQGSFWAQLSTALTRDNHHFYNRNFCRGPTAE
Experimental: The objective of this study was to collect serum following ODN CpG 1668 administration and to determine the pharmacokinetics of JB6121 following oral administration to Sprague-Dawley rats for 7 days. There was a pre-test to establish the appropriate agonist dose for a TLR9 ligand, CpG DNA ODN 1668, in rats using serum IL-12 as the monitored cytokine, groups 1-3, see table 6. Whole blood samples for serum were collected terminally from each animal 3 hours following dosing with ODN CpG 1668. Serum IL-12 was determined by ELISA, data not shown. An agonist dose of lmg/kg was selected for the next phase of the study. For groups administered JB6121 (Groups 4-7), formulations were corrected for base/salt components and not corrected for purity. On the initial day of dose administration, JB6121 formulations were prepared using sterile PBS to the adjusted target dosing concentrations using a factor of 0.8265 to correct for salt content. Dosing was performed as outlined in the following Table 9.
Animals were assigned to four groups (groups 4-7) and administered JB6121 at 0.39, 1.56, 6.25, or 25 mg/kg in a volume of […] once per day by oral gavage for 7 days. On Day 7, two hours following the JB6121 dose (approximate Cmax), ODN CpG 1668 was administered as a single IP dose at 1 mg/kg in a volume of 1 mL/kg. Whole blood samples for bioanalysis and serum samples for serum cytokine analysis were collected by tail vein bleeding or terminally by cardiac puncture at t=2, 3, 4 and 5 h.
Serum IL-12 was monitored at three hours post agonist challenge as a measure of pharmacodynamic JB6121 activity, see FIG. 4. The apparent ID50 post 7-day exposure is approximately 11 ng*h/ml AUC or roughly 0.5 mg/kg dose. […] This would lead to a fourfold greater, 0.5 mg/kg versus 2.4 mg/kg, expected activity in the 7-day rat versus the 1-day mouse. […] We also used multiplex analysis to measure additional cytokines and chemokines in the serum samples. The measurements delivered results for MIP-1a, MIP-2, MCP-1 and IP-10.

[3] = male, Sprague-Dawley, whole blood, Rat, PO 10.0 mg/kg

`CN1CCN(c2nc(NCCN3CCOCC3)c3nc(Cl)c(NCCN4CCOCC4)nc3n2)CC1` [JB6121, 6-chloro-2-(4-methylpiperazin-1-yl)-N^4,N^7-bis(2-morpholinoethyl)pteridine-4,7-diamine] showed an AUC ([1]; male, Sprague-Dawley, rat, whole blood, iv, 2 mg/kg, Rat, IV 2.0 mg/kg, read-out: AUC) of 2040 ng·h/mL, an AUC ([1]; male, Sprague-Dawley, rat, whole blood, iv, 2 mg/kg, Rat, IV 2.0 mg/kg, read-out: AUC Extrap) of 2230 ng·h/mL and a bioavailability ([1]; male, Sprague-Dawley, rat, whole blood, oral, 10 mg/kg, summary statement, read-out: in vivo bioavailability) greater than 20%. It also gave an AUC ([1]; male, Sprague-Dawley, rat, whole blood, po, 10 mg/kg, Rat, PO 10.0 mg/kg, read-out: AUC) of 2100 ng·h/mL, an AUC ([1]; male, Sprague-Dawley, rat, whole blood, po, 10 mg/kg, Rat, PO 10.0 mg/kg, read-out: AUC Extrap) of 2310 ng·h/mL and a clearance ([1]; male, Sprague-Dawley, whole blood, Rat, IV 2.0 mg/kg) of 16.4 mL/min/kg. The Vd ([1]; male, Sprague-Dawley, whole blood, Rat, IV 2.0 mg/kg, read-out: Vdss) was 21.6 L/kg, the Cmax [1, 3] was 149 ng/mL and the Tmax [1, 3] was 3.33 h. For the same compound, the bioavailability ([1]; male, Sprague-Dawley, whole blood, Rat, PO 10.0 mg/kg, read-out: Bioavailability) was 20.6%, the half-life ([1]; male, Sprague-Dawley, Rat, IV 2.0 mg/kg, whole blood, 24 h, read-out: T½ (converted)) was 9.71 h and the “clinically relevant abnormalities during dosing and sampling” value ([1]; rats, 2 mg/kg IV and 10 mg/kg PO) was “no abnormalities were noted”. It also gave an ED50 ([2]; rat, po, serum IL-12, 3 h post agonist challenge, read-out: apparent ID50 post 7-day exposure, as dose) of roughly 0.5 mg/kg, an inhibition at 1.56 mg/kg ([2]; rat, 1.56 mg/kg dose, PO daily x7 days) greater than 80% and an ED50 ([2]; rat, serum IP-10, read-out: ID50, IP-10 (multiplex analysis)) of roughly 2.8 mg/kg. The “apparent ID50 post 7-day exposure, as AUC” value ([2]; serum IL-12, 3 h post agonist challenge) was “approximately 11 ng*h/ml”.
